Consider 2 compounds from patent US8652770B2, “Storage of platelets under pressure with xenon containing atmosphere” (Rich Products Corporation, priority 2008, dated 2014).

The structures appear in SMILES notation.

What all share (assay type): cell-based, rabbit
Test [1] deals with platelets. The experiment in a line: Platelet cell counting (hemocytometer) after storage of PRP. Particulars: 4° C.; for # cells: Table 3, 4 bars total pressure of gas, 7 days; for Cell number: Input = 100%. Further details: # cells: unit not given here. As to the method: Blood was obtained by puncturing a rabbit marginal ear vein and collecting blood in a sterile vacuum tube. About 10-15 ml of blood was used, although the amount taken from any particular individual can be varied by the skilled artisan according to routine considerations, such as the size of the individual and the intended use of the platelets prepared according to the method of the invention.
The blood was centrifuged at a speed of approximately 200 g for 10 minutes to separate red blood cells (RBC) and platelet rich plasma (PRP). The PRP was transferred to another tube.
(§1) Two microliters of PRP were used to count cells essentially as described in Born et al. (J. Physiol. (1963) Vol. 168, pp 178-195). An additional two microliters were used for antibody staining and flow cytometry analysis performed essentially as reported in Shattil et al. (1987) Detection, Blood Vol. 70 p 307-315.
(§2) For determining platelet aggregation, approximately 250 microliters of PRP were used for a pre-treatment aggregation test. The remaining PRP was transferred to test tubes in which the atmosphere was adjusted to include xenon under two distinct pressures (4 bars of total pressure created by introducing 99.999% xenon into the test tube in a first set of experiments, and 5.3 bars of total pressure, also created by introducing 99.999% xenon into the test tube, in a second set of experiments). For adjusting the atmosphere in the containers, the test tubes were covered with rubberized caps that were punctured for introducing xenon. The test tubes were put into an experimental chamber and the atmosphere in the test tubes was adjusted by filling the test tubes with xenon using a 0.2-micrometer aseptic filter. Pressure changes in the tubes were measured using a manometer. Negative controls (no adjustment of the composition of the atmosphere in which the platelets were held) were also performed.
(§3) The chambers were shaken at 150-200 rpm on a Biosan OS-10 orbital shaker for one hour at ambient temperature (approximately 23° C.) to dissolve xenon in the PRP. The experimental chambers were then stored at approximately 4° C. with shaking at 50-70 rpm using a Biosan OS-10 orbital shaker and removed at one and two week time points for experiments under 4 bars of xenon pressure. The experiment using the initial xenon pressure of 5.3 bars were stored at 4° C. for 1 week.
After storage, the chambers were removed from refrigeration and kept at ambient temperature (approximately 23° C.) for 30 minutes with shaking at approximately 150-200 rpm. The atmosphere was then slowly allowed to equilibrate with ambient pressure of a period of 30 minutes by allowing the atmosphere in the chamber and in the test tubes to equilibrate with the atmosphere outside the test tubes through a specially adapted valve. […]
Subsequent to allowing the atmosphere in the experimental and control tubes to equilibrate with ambient pressure and temperature, the PRP samples were analyzed using conventional hemocytometer based cell counting, induced aggregation analysis using ADP and epinephrine, whereby aggregation was determined using manual counting and aggregometer analysis according to standard techniques, and by cd62p/cd61 immunostaining and flow cytometry analysis performed on an Epic XL, Beckman-Coulter cytometry machine. […]

The test system of test [2] is platelets. The test is described as follows: ADP-induced platelet aggregation, xenon compared to argon, vacuum step omitted. Particulars: Table 3, 4 bars total pressure of gas, 4° C., 7 days, no vacuum step. As to the method: In view of the result obtained in Table 2, we performed another set of experiments to compare the properties of xenon to argon in ADP-induced platelet aggregation assays, the results of which are depicted in Table 3.
The experiments summarized in Table 3 were performed using an atmosphere of 4 bars total pressure created by introducing xenon or argon into the containers using essentially the same techniques as for the experiments described for Tables 1 and 2, except the PRP samples were cooled to 4° C. and held at approximately in an atmosphere of 3.8 bar xenon for 7 days. In this experiment, the initial partial pressure of xenon was 4 bars, but the pressure dropped to 3.8 bars during storage, presumably due to dissolution of xenon into the platelets from the atmosphere in the container.

The subject of the next test is Cd41/62p. The test is described as follows: Cd41/62p immunostaining and flow cytometry (platelet activation markers). Particulars: for Cd41/62p: % of cells with activation markers, Xe 4 bars, 4° C., Input 13%.
From the text: We analyzed platelet activation using a standard methodology comprising immunostaining platelets for CD62 and CD41 and subsequent analysis by flow cytometry. […] Thus, it will be recognized by those skilled in the art that the invention provides stored platelet preparations that are useful for treating individuals in need of platelet transfusion therapy. It is therefore considered that practicing the method of the invention transforms a platelet concentrate that would not ordinarily tolerate refrigeration into a platelet concentrate that can withstand refrigeration such that the platelet concentrate remains useful for transfusions after being stored at refrigerated temperature for at least two weeks. It will also be recognized that the platelet concentrate has other potential uses, such as in high-throughput assays to screen a test agent for the capability to modify platelet function.
as §1
(§4) Analysis of the platelet function after storage included platelet counting at a hemocytometer, platelet aggregation tests using ADP and epinephrine as aggregation inducing agents, with manual counting and analysis using an aggregometer, and CD62p/CD61 antibody staining, with subsequent flow cytometry analysis on Epic XL, Beckman-Coulter generally as described in Shattil et al. (1987) Blood Vol. 70 p […] of platelets were stained using anti-CD62p and anti-CD61 antibodies obtained from commercial vendors.
(§5) Subsequent to allowing the atmosphere in the experimental and control tubes to equilibrate with ambient pressure and temperature, the PRP samples were analyzed using conventional hemocytometer based cell counting, induced aggregation analysis using ADP and epinephrine, whereby aggregation was determined using manual counting and aggregometer analysis according to standard techniques, and by cd62p/cd61 immunostaining and flow cytometry analysis performed on an Epic XL, Beckman-Coulter cytometry machine. The cdc62p/cd61 analysis was performed using commercially available antibodies and generally according to the known method reported in Shattil et al. (1987) Detection of activated platelets in whole blood using activation-dependent monoclonal antibodies and flow cytometry, Blood Vol. 70 p 307-315.
In Table 1, “Input” represents pre-treatment/storage measurements. Cell number and Aggregation induced by ADP/epinephrine before performing the method are used to set 100% values. […] NG=no gas. […]

Test [3] relates to platelets. The test is described as follows: ADP/epinephrine induced platelet aggregation after storage of PRP. Conditions: for Aggregation (ADP/epinephrine): Xe 4 bars, Input = 100%; for Aggregation (ADP/epinephrine), %: Table 2, 7 days Xe, 4 bars.
From the text: as §2, §3
After storage, the chambers were removed from refrigeration and kept at ambient temperature (approximately 23° C.) for 30 minutes with shaking at approximately 150-200 rpm. The atmosphere was then slowly allowed to equilibrate with ambient pressure of a period of 30 minutes by allowing the atmosphere in the chamber and in the test tubes to equilibrate with the atmosphere outside the test tubes through a specially adapted valve. Once the atmosphere in the chambers and test tubes equilibrated with ambient pressure, a vacuum was applied for approximately three minutes at approximately 380 mmHg to remove residual xenon from the PRP.
as §4, §5

Take `[Ar]` [Argon, argon, reference compound]: the “# cells” value in the test on platelets [1] was 594 *106. In the test with platelets [2], the Aggregation % came to 100%.

In the case of `[Xe]` [Xenon, xenon], the Cd41/62p in the test with Cd41/62p (PRP stored 7 days) is 39%; with Cd41/62p (PRP stored 14 days), 33%. The “surface CD62 and CD41 over control platelet concentrates not treated with xenon” value with Cd41/62p (platelet concentrates treated by the method) is reported as “two-fold less”. Besides, the “inhibition of spontaneous activation (Cd41/62p) relative to the NG control” value in the test on Cd41/62p (xenon 4 bar atmosphere treated samples) was “two-fold better inhibition”. The “improvement of ADP/Epinephrine induced aggregation by evacuating residual xenon with vacuum” value in the test on platelets [3] (7 days Xe 4 bars 4° C., with vs without vacuum) worked out at 20%. The “Aggregation (ADP/epinephrine)” value was found to be 83% in the test on platelets [3] (PRP stored 7 days, 4° C.) and 54.5%^ in the test on platelets [3] (PRP stored 14 days, 4° C.). In addition, the “Aggregation (ADP/epinephrine), %” value with platelets [3] (4° C. with three minutes vacuum application) stood at 72%; in the test with platelets [3] (4° C., no vacuum), 53%. In addition, the “induced aggregation higher than no gas control” value with platelets [3] (after 2 weeks of storage, 4 bar xenon treated sample vs NG control) is reported as “about 20%”. The Cell number stood at 77.5%^ with platelets [1] (PRP stored 7 days, Xe 4 bars); 12.6% in the test on platelets [1] (PRP stored 7 days, Xe 5.3 bars); 59% in the test on platelets [1] (PRP stored 14 days, Xe 4 bars). In addition, the “# cells” value in the test with platelets [1] is 674 *106. In addition, the Aggregation % with platelets [2] came to 87%.
